From PubChem BioAssay (NCI)
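Results reflect a 48-hour exposure of cells in 96-well plates to compound at five concentrations. TGI is the concentration that stops growth completely.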

Key:
Experiment in all cases: NCI-60 cell line screen, 48 h
[1] = test system: 786-0 renal
[2] = test system: A498 renal
[3] = test system: A549 NSCLC
[4] = test system: ACHN renal
[5] = test system: BT-549 breast
[6] = test system: CCRF-CEM leukemia
[7] = test system: COLO 205 colon
[8] = test system: DU-145 prostate
[9] = test system: EKVX NSCLC
[10] = test system: HCC-2998 colon
[11] = test system: HCT-116 colon
[12] = test system: HCT-15 colon
[13] = test system: HL-60(TB) leukemia
[14] = test system: HOP-62 NSCLC
[15] = test system: HS 578T breast
[16] = test system: HT29 colon
[17] = test system: IGROV1 ovarian
[18] = test system: K-562 leukemia
[19] = test system: KM12 colon
[20] = test system: LOX IMVI melanoma
[21] = test system: M14 melanoma
[22] = test system: MALME-3M melanoma
[23] = test system: MCF7 breast
[24] = test system: MDA-MB-231 breast
[25] = test system: MDA-MB-435
[26] = test system: MDA-N
[27] = test system: MOLT-4 leukemia
[28] = test system: NCI-H226 lung
[29] = test system: NCI-H23 lung
[30] = test system: NCI-H460 lung
[31] = test system: NCI-H522 lung
[32] = test system: NCI/ADR-RES ovarian
[33] = test system: OVCAR-3 ovarian
[34] = test system: OVCAR-4 ovarian
[35] = test system: OVCAR-5 ovarian
[36] = test system: OVCAR-8 ovarian
[37] = test system: PC-3 prostate
[38] = test system: RPMI-8226 leukemia
[39] = test system: RXF 393 renal
[40] = test system: SF-268 CNS
[41] = test system: SF-295 CNS
[42] = test system: SK-MEL-2 melanoma
[43] = test system: SK-MEL-28 melanoma
[44] = test system: SK-MEL-5 melanoma
[45] = test system: SK-OV-3 ovarian
[46] = test system: SN12C renal
[47] = test system: SNB-19 CNS
[48] = test system: SNB-75 CNS
[49] = test system: SR leukemia
[50] = test system: SW-620 colon
[51] = test system: T-47D breast
[52] = test system: TK-10 renal
[53] = test system: U251 CNS
[54] = test system: UACC-257 melanoma
[55] = test system: UACC-62 melanoma
[56] = test system: UO-31 renal
[57] = test system: CAKI-1 renal
[58] = test system: HOP-92 NSCLC
[59] = test system: SF-539 CNS

Measured: TGI

O=C(O)c1c(-c2ccccc2)c(=O)[nH]c2ccccc12
not listed: [57] | [58] | [59]
> 100 µM: all other assays above

Cc1cn(CCCCCCOC(=O)NC(CCCN=C(N)N)C(=O)O)c(=O)[nH]c1=O (centres undefined)
not listed: [22] | [31] | [44]
> 100 µM: all other assays above

O=C(CCN1CCCCC1)Nc1ccc2sc3ccccc3c(=O)c2n1
42.1 µM: [30]
37.2 µM: [5]
61.9 µM: [44]
73.9 µM: [32]
52.4 µM: [46]
22.9 µM: [11]
31.3 µM: [17]
1.79 µM: [58]
23 µM: [48]
25.8 µM: [25]
34 µM: [19]
39 µM: [49]
46.1 µM: [8]
28.9 µM: [26]
43.3 µM: [40]
57.5 µM: [23]
33.7 µM: [33]
52.7 µM: [4]
33.6 µM: [57]
46.9 µM: [52]
29.8 µM: [14]
46.3 µM: [54]
33.2 µM: [50]
33.8 µM: [43]
54 µM: [6]
41.5 µM: [15]
18.8 µM: [27]
30.1 µM: [55]
25.9 µM: [31]
43 µM: [35]
46.6 µM: [12]
84 µM: [9]
22.1 µM: [56]
28.5 µM: [1]
31.6 µM: [59]
48.7 µM: [45]
24.8 µM: [20] | [38]
44.4 µM: [24]
24.5 µM: [7]
> 100 µM: [16]
35.3 µM: [3]
19.2 µM: [13]
30 µM: [10]
47.7 µM: [47]
30.3 µM: [37] | [53]
43.6 µM: [22]
45.7 µM: [41]
93.6 µM: [51]
28.6 µM: [18]
27.3 µM: [21]
41.9 µM: [34]

Nc1ccc2c(c1)S(=O)(=O)c1cc(O)ccc1O2
not listed: [22] | [38] | [48]
> 100 µM: all other assays above

COC(=O)C(CCC1C=CN(S(=O)(=O)c2ccc(C)cc2)C1)N=Cc1ccccc1 (centres undefined)
22.1 µM: [13]
82 µM: [38]
53.9 µM: [44]
41.1 µM: [7]
63 µM: [29]
49.6 µM: [42]
61.1 µM: [49]
not listed: [22]
> 100 µM: all other assays above
